Entries after “also recorded” stand apart in the source; their conditions may differ.
Test system: Dendra2-LC3 HEK cells
Experiment: Optical pulse labeling: time-dependent decay of photoconverted (red, RFP/TRITC) Dendra2-LC3 as measure of autophagic flux
Type: cell-based, human
Design: key to Hit class in screen of Enzo Autophagy compound library (9H RFP/0H RFP): enhancer: [Sample9H RFP/OH RFP]<[DMSO9H RFP/OH RFP−3SDDMSO]; inhibitor: [Sample9H RFP/OH RFP]>[DMSO9H RFP/OH RFP 3SDDMSO]
Settings: for Effect on torin1-induced Dendra2-LC3 degradation: co-treatment with torin1; for Effect on torin1-induced Dendra2-LC3 degradation / Degradation (decay) of photoconverted Dendra2-LC3: red channel; for Dose dependence of effect on Dendra2-LC3 decay: increasing concentrations, RFP and GFP channels; for Degradation (decay) of photoconverted Dendra2-LC3: vs DMSO, Torin1 1 uM, Bafilomycin-A1 10 nM
Description: FIGS. 8A-E. Time dependent decay of Dendra2-LC3 as an assay of autophagic flux. (FIG. 8A) Dendra2-LC3 reporter cells were imaged prior to photoconversion to measure background TRITC intensity. Immediately following photoconversion with a 5 second pulse of […] light, cells were treated with DMSO, 1 uM Torin1, or 10 nM Bafilomycin-A1 and then were subsequently imaged at the indicated time points. Images are psuedocolored to better highlight intensity differences. (FIGS. 8B-E) Time dependent changes in photoconverted Dendra2-LC3 fluorescence in the TRITC (FIGS. 8B, D) and GFP (FIGS. 8C, E) channels. Gray boxes represent the pre and post-photoconversion time points. TRITC intensity values are normalized, setting the background intensity prior to conversion to 0 and the post-conversion value to 1. GFP values are normalized to the pre-conversion intensity. Error bars represent the SEM from three replicate experiments. […] (FIG. 8C) Following photoconversion there is a 40% drop in GFP intensity. As new Dendra2-LC3 is synthesized, GFP levels return to pre-photoconversion levels over the span of 13.5 hours. […] Cells were transfected with 20 nM ATG5 siRNA two days prior to imaging.
FIG. 9A-C. Evaluating the efficacy of known autophagy modulators. (FIG. 9A) An unbiased screen of the Enzo Autophagy compound library identified several known autophagy compounds as hits providing construct validity to the assay. Rapamycin, NVP-BEZ235 and AKT inhibitor X, were among the compounds appropriately identified as enhancers while Bafilomycin registered as an inhibitor. […] Cells were imaged in RFP to measure background fluorescence, then photoconverted with a 4 second DAPI exposure and immediately imaged again to establish the postconversion intensity. Drugs from the Enzo Autophagy library were added at a concentration of 10 uM via a robotic liquid handler. 9 hours later the cells were imaged again in order to assess the efficacy of the drugs. Hits were defined as follows: enhancer: [Sample9H RFP/OH RFP]<[DMSO9H RFP/OH RFP−3SDDMSO], inhibitor: [Sample9H RFP/OH RFP]>[DMSO9H RFP/OH RFP 3SDDMSO]. […] Imaging of the compound library was repeated in GFP. Intensity values are reported 15 hours after drug treatment. (FIG. 9C) The reduction in Dendra2-LC3 half-life observed upon treatment of autophagic flux enhancers is attenuated with partial knockdown of ATG5. Cells were transfected with 20 nM ATG5 siRNA 2 days prior to imaging. Error bars represent SEM from three replicate experiments.
Experiments were conducted during development of embodiments herein to develop a sensitive method—optical pulse labeling (OPL)—that takes advantage of the photoconvertible fluorescent protein Dendra2 for estimations of autophagic flux in cellulo (Refs 14, 34; herein incorporated by reference in their entireties) (FIG. 1b). […] Dendra2 was fused to LC3, a specific marker of autophagosomes and itself an autophagy substrate (Refs. 27, 31; herein incorporated by reference in their entireties). Following photoconversion, the time-dependent reduction in red LC3-Dendra2 (FIG. 1c) is used to calculate protein half-life, representing an estimate of autophagy flux for individual cells (Refs. 14, 34; herein incorporated by reference in their entireties) Furthermore, because LC3 is degraded as autophagosomes mature, the return to steady-state levels of green Dendra2-LC3 after photoconversion (FIG. 1d) reflects activity within the pathway as a whole. The assay is noninvasive, permitting longitudinal analyses of autophagy kinetics in living cells, and amenable to HTS.
For these studies the potent mTOR inhibitor torin1 (Ref. 36; herein incorporated by reference in its entirety) was selected as a positive control for autophagy induction, and the vacuolar ATPase inhibitor bafilomycin-A1 (Ref. 37; herein incorporated by reference in its entirety) as a positive control for autophagy inhibition. In each case, DMSO served as a vehicle (negative) control. […]

CO/C1=C\C(C)=C\[C@@H](C)[C@@H](O)[C@@H](C)C/C(C)=C/C=C/[C@H](OC)[C@@H]([C@@H](C)[C@@H](O)[C@H](C)[C@@]2(O)C[C@@H](O)[C@H](C)[C@@H](C(C)C)O2)OC1=O [Bafilomycin-A1, bafilomycin-A1]
Hit class in screen of Enzo Autophagy compound library (9H RFP/0H RFP) (10 uM, 9 hours after drug addition): inhibitor
Effect on torin1-induced Dendra2-LC3 degradation (listed as BafilomycinA1): blocks induction by torin1
Effect on torin1-induced Dendra2-LC3 degradation (listed as bafilomycin-A1): completely blocked the effects of torin1
Dose dependence of effect on Dendra2-LC3 decay: similar, tunable response
Degradation (decay) of photoconverted Dendra2-LC3 (listed as bafilomycin): extends it
Degradation (decay) of photoconverted Dendra2-LC3 (listed as bafilomycin-A1): slowed its clearance

CCC(=O)N1CCN(c2ccc(-n3c(=O)ccc4cnc5ccc(-c6cnc7ccccc7c6)cc5c43)cc2C(F)(F)F)CC1 [Torin1, torin1]
Dose dependence of effect on Dendra2-LC3 decay: increased in a dose dependent manner
Degradation (decay) of photoconverted Dendra2-LC3: significantly accelerates Dendra2-LC3 degradation; also recorded: accelerates decay; also recorded: significantly enhanced Dendra2-LC3 degradation

Source: patent publication US10928381B2, “In vitro methods of monitoring autophagy in a human cell using a photoconvertable fluorescent protein linked biomarker” (The Regents of the University of Michigan, priority 2018, dated 2021)
